The test system of test [1] is pTREtight-Ub-ELuc reporter in HEK293T cells. Briefly: Relationship between Dox concentration and induced gene expression level (FIG. 7). It is filed as cell-based, human. On the procedure: In order to analyze the relationship between the Dox concentration and the induced gene expression level, HEK293T cells were seeded in a 24-well plate at 5 to 9×10^4 cells/well, transfected, and assayed in the same manner as in candidate construct screening. Dox was applied to the cells at concentrations of 0, 1, 7.5, 15, 20, 50, and 100 ng/mL for the PA-Tet-OFF constructs and at concentrations of 0, 10, 15, 20, 30, 35, 40, 50, 75, 100, and 250 ng/mL for the PA-Tet-ON constructs. The cells were irradiated with blue light (7.2 W/m^2; pulsed for 2 seconds every minute) for 3 hours.
In addition, for the PA-Tet-OFF system using the PA-Tet-OFF-T2A construct and the PA-Tet-independent system using the PA-Tet-H100Y construct, the influence of DOx concentration on the PA-Tet-controlled expression efficiency was investigated. Furthermore, for the PA-Tet-ON system using a construct obtained by introducing a V10 mutation into the PA-Tet-OFF-T2A construct (PA-Tet-ON-T2A construct), the influence of Dox concentration on the PA-Tet-controlled expression efficiency was investigated. The data represent mean±standard deviation (n=3) obtained from one experiment. In FIGS. 7(A) and 7(B), “*” means p<0.05 (paired student's t-test).

For test [2], the system named is brain neurons of mouse pups. Briefly: Light- and Dox-dependent luciferase expression in brain neurons of mouse pups. It is filed as in vivo. To be noted: PA-Tet-OFF system; after single dosing of Dox 0.1 mg/g. Here is the method:
For irradiating the brains of mouse pups with light, anesthetized mice were stimulated through an optical fiber using a blue LED (PLEXBRIGHT®, manufactured by Plexon Inc). After being irradiated with blue light (40 W/m^2; pulsed for 1 second every 15 seconds; continued for 3 hours), the mice were immediately sacrificed, the right brain irradiated with blue light was immediately extracted and lysed, and the luciferase activity thereof was measured.
The mice were treated with Dox. For long-term Dox administration, drinking water containing 1 mg/mL Dox in a 5% by mass sucrose solution was given to the mice. […]
Next, Dox-dependent inhibition of transcriptional activity of the PA-Tet-OFF system in brain neurons was analyzed. […] The luminescence signal intensity induced by the luciferase expression in the brain cells after the light irradiation treatment was measured. Furthermore, for mice treated with Dox (0.1 mg/g (body weight)) 1 hour before the light irradiation treatment, the luminescence signal intensity was also measured in the same manner. In the mouse brain neurons (represented by “Light” in FIG. 25) subjected to the light irradiation treatment, luciferase expression was activated, and the luminescence signal intensity increased. […]
Furthermore, the restoration of light-inducible transcriptional activity after removal of Dox was analyzed in cells transfected with the PA-Tet-OFF system. […]

Test [3] has as its system pTREtight-Ub-ELuc reporter in HEK293T cells. Briefly: Relationship between Dox concentration and gene expression induction, near-infrared light (Table 9). To be noted: 25 μM BV; for Light: near-infrared light 750 nm. The format is cell-based, human. Set-up: scale not given here. On the procedure:
Next, for QT4, QT7 and QT8 constructs, the relationship between Dox concentration and gene expression induction was investigated. Specifically, the relationship was investigated in the same manner as in “Functional screening of PA-Tet-OFF candidate constructs” described above, except that HEK293T cells were seeded in a 24-well plate at 6×10^4 cells/well, the medium was replaced with a medium containing 25 μM BV and having Dox concentration described in Table 9 6 hours after transfection, the cells were irradiated with near-infrared light (750 nm, 4.0 mW/cm^2) for 42 hours by being exposed to light for 30 seconds every 180 seconds, and a 750 nm LED (SMBB750D-1100, manufactured by Ushio Inc.) was used as a light source. All experiments were performed in 3 independent trials (3 batches) to obtain consistent results.

Test [4] has the same test system. Briefly: PA-Tet-independent / PA-Tet-ON construct luciferase assay with or without Dox (Example 3, Table 5). The format is cell-based, human. The note with it: first batch; for An initial construct screening result: Light (relative luminescence signal intensity): blue light. Here is the method:
For each construct, a plasmid containing the expression cassette was introduced into HEK293T cells together with a pTREtight-Ub-ELuc reporter, thereby obtaining transformed cells. These cells were irradiated with blue light in the absence of Dox or in the presence of Dox, and the light-dependent transcriptional activity of Ub-ELuc was investigated. All experiments were performed in 3 independent trials (3 batches) to obtain consistent results.

Test [5] concerns the target T1, CIB1 (Arabidopsis thaliana, UniProt Q8GY61).
T1 sequence (Q8GY61 1-335): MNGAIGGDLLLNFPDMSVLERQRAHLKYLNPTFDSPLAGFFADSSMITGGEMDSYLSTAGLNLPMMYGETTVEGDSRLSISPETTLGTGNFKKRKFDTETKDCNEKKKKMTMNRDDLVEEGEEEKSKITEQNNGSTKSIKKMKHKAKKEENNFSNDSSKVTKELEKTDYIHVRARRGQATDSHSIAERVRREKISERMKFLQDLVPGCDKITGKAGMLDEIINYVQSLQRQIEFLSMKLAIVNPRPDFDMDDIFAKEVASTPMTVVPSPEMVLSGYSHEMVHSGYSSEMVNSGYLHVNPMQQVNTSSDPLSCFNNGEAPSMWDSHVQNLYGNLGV
To be noted: after light activation; cited from earlier work.

With `C[C@H]1c2cccc(O)c2C(=O)C2=C(O)[C@]3(O)C(=O)C(C(N)=O)=C(O)[C@@H](N(C)C)[C@@H]3[C@@H](O)[C@@H]21` [Dox, doxycycline], the results for the “extremely low Dox concentration at which the effect brought about by Dox was observed” value in test [1] (PA-Tet-OFF system) and in test [1] (PA-Tet-ON system) were 1 ng/mL and 10 ng/mL, respectively. The “duration of inhibition of light-induced luciferase expression” value in test [2] stood at 4 days.

Regarding “QT4: TetR(I194T)-SPKKK-HMEF-RpBphP1 + 2xNLS-p65AD-HMEF-Q-PAS1 (SEQ ID NO: 26, 27)”, the Light was 17.7 in test [3] (Dox 0 ng/mL); 20.6 in test [3] (Dox 0.025 ng/mL); 10.7 in test [3] (Dox 0.050 ng/mL); 10.1 in test [3] (Dox 0.100 ng/mL); 2.9 in test [3] (Dox 0.200 ng/mL); 0.2 in test [3] (Dox 1.0 ng/mL). In addition, the Dark in test [3] (Dox 0.100 ng/mL) was found to be 0.5; in test [3] (Dox 0.200 ng/mL) it was 0.3; in test [3] (Dox 0.500 ng/mL), 0.2; in test [3] (Dox 1.0 ng/mL) it was 0.2.

In the case of “QT7: RpBphP1-TSTR-TetR(I194T) + p65AD-HMEF-Q-PAS1 (SEQ ID NO: 28, 29)”, the Light came out at 53.7 in test [3] (Dox 0 ng/mL); 29.9 in test [3] (Dox 1.0 ng/mL); 34.7 in test [3] (Dox 2.0 ng/mL); 25.0 in test [3] (Dox 3.0 ng/mL); 17.6 in test [3] (Dox 4.0 ng/mL); 16.4 in test [3] (Dox 5.0 ng/mL). In test [3] (Dox 10.0 ng/mL), this molecule gave a Light of 3.7. In addition, the Dark is given as 2.9 in test [3] (Dox 1.0 ng/mL); 2.7 in test [3] (Dox 2.0 ng/mL); 1.3 in test [3] (Dox 4.0 ng/mL); 1.6 in test [3] (Dox 5.0 ng/mL); 0.3 in test [3] (Dox 10.0 ng/mL).

“QT8: RpBphP1-TSTR-TetR(I194T) + 2xNLS-p65AD-HMEF-Q-PAS1 (SEQ ID NO: 28, 27)”: the Light in test [3] (Dox 0 ng/mL) is given as 152.0; in test [3] (Dox 1.0 ng/mL) it was 143.1; in test [3] (Dox 2.0 ng/mL) it was 112.2; in test [3] (Dox 3.0 ng/mL), 108.7; in test [3] (Dox 4.0 ng/mL), 86.8; in test [3] (Dox 5.0 ng/mL), 63.9. In addition, the Light in test [3] (Dox 10.0 ng/mL) was 7.2. Further, the Dark in test [3] (Dox 1.0 ng/mL) was 14.5; in test [3] (Dox 2.0 ng/mL), 17.1; in test [3] (Dox 3.0 ng/mL), 16.0; in test [3] (Dox 4.0 ng/mL), 15.1; in test [3] (Dox 5.0 ng/mL) it was 15.2; in test [3] (Dox 10.0 ng/mL), 3.1.

As to “T86: TetR(I194T)-SPKKK-CIBN no NLS + Cry2 PHR (L348F)-p65 AD-NLSx2 (Element #1 SEQ ID NO: 5, Element #2 SEQ ID NO: 6) [Construct T86]”, the “An initial construct screening result: Light (relative luminescence signal intensity)” value was 12.3 in test [4] (Dox 0 ng/mL) and 0.1 in test [4] (Dox 75 ng/mL). Moreover, the “An initial construct screening result: Dark (relative luminescence signal intensity)” value in test [4] (Dox 75 ng/mL, dark) is given as 0.1.

B1: Cry2: Arabidopsis thaliana Cryptochrome 2 photoreceptor binding CIB1 in a blue light-specific manner (protein)
chain: MKMDKKTIVWFRRDLRIEDNPALAAAAHEGSVFPVFIWCPEEEGQFYPGRASRWWMKQSLAHLSQSLKALGSDLTLIKTHNTISAILDCIRVTGATKVVFNHLYDPVSLVRDHTVKEKLVERGISVQSYNGDLLYEPWEIYCEKGKPFTSFNSYWKKCLDMSIESVMLPPPWRLMPITAAAEAIWACSIEELGLENEAEKPSNALLTRAWSPGWSNADKLLNEFIEKQLIDYAKNSKKVVGNSTSLLSPYLHFGEISVRHVFQCARMKQIIWARDKNSEGEESADLFLRGIGLREYSRYICFNFPFTHEQSLLSHLRFFPWDADVDKFKAWRQGRTGYPLVDAGMRELWATGWMHNRIRVIVSSFAVKFLLLPWKWGMKYFWDTLLDADLECDILGWQYISGSIPDGHELDRLDNPALQGAKYDPEGEYIRQWLPELARLPTEWIHHPWDAPLTVLKASGVELGTNYAKPIVDIDTARELLAKAISRTREAQIMIGAAPDEIVADSFEALGANTIKEPGLCPSVSSNDQQVPSAVRYNGSKRVKPEEEEERDMKKSRGFDERELFSTAESSSSSSVFFVSQSCSLASEGKNLEGIQDSSDQITTSLGKNGCK
modifications: Cry2
With B1, the “half-life of spontaneous dissociation from CIB1” value in test [5] was “about 5.5 minutes”.
